The values that follow come from patent US12173020B2, “New-type oxazolidinone compounds and preparation method therefor” (priority 2019, dated 2024).

Assay [1] concerns methicillin-resistant Staphylococcus aureus (MRSA). In words: agar dilution method, inhibitory effect on MRSA. Conditions: Staphylococcus aureus, read-out: Minimum inhibitory concentration (MIC50, μg/ml) MRSA. It is filed as cell-based. The source says: (§1) In order to determine the antibacterial activity of these new oxazolidinone-based compounds, an agar dilution method was used to test the inhibitory effect on methicillin-resistant Staphylococcus aureus (MRSA) and vancomycin-resistant Enterococcus (VRE). The bacteria inhibition effect was expressed as minimum inhibitory concentration (MIC50, μg/ml) The test results are shown in the following table.
On the technique in general: Agar dilution tests growth on a series of plates holding different concentrations.

Assay [2] deals with vancomycin-resistant Enterococcus (VRE). In words: agar dilution method, inhibitory effect on VRE. It is filed as cell-based. Conditions: Enterococcus, read-out: Minimum inhibitory concentration (MIC50, μg/ml) VRE.
Description: as §1

Molecules are shown by their SMILES.

Consider `C=Cn1nnc(-c2ccc(-c3ccc(N4C[C@@H](C(O)CF)OC4=O)cc3F)cn2)n1.O=P(O)(O)O` (stereo partly drawn) [compound 154, (S)-3-(3-fluoro-4-(6-(2-vinyl-2H-tetrazol-5-yl)pyridin-3-yl)phenyl)-5-(1-hydroxy-2-fluoroethyl) oxazolidin-2-one phosphate], for which the MIC50 in assay [1] stood at 0.4 µg/mL; in assay [2] it was 0.3 µg/mL.

With `C=Cn1nnc(-c2ccc(-c3ccc(N4C[C@H](C(O)C5CC5)OC4=O)cc3F)cn2)n1.O=P(O)(O)O` (stereo partly drawn) [compound 155, (R)-3-(3-fluoro-4-(6-(2-vinyl-2H-tetrazol-5-yl)pyridin-3-yl)phenyl)-5-(1-hydroxy-1-cyclopropylmethyl) oxazolidin-2-one phosphate], the MIC50 in assay [1] stood at 0.9 µg/mL; in assay [2], 0.5 µg/mL.

Regarding `C=Cn1nnc(-c2ccc(-c3ccc(N4C[C@@H](C(O)C5CC5)OC4=O)cc3F)cn2)n1.O=P(O)(O)O` (stereo partly drawn) [compound 156, (S)-3-(3-fluoro-4-(6-(2-vinyl-2H-tetrazol-5-yl)pyridin-3-yl)phenyl)-5-(1-hydroxy-1-cyclopropylmethyl) oxazolidin-2-one phosphate], the MIC50 in assay [1] and in assay [2] was 0.4 µg/mL each time.
